Experimental data reported in patent US11419918B2, “Treatment of biliary cirrhosis based on oxyntomodulin analogue GLP-1R/GCGR dual-target agonist peptide” (Shenzhen Turier Biotech Co., Ltd., priority 2017, dated 2022).
Numbered stars: 1 amine (or outer) side, 2 acyl side, 3 side chain; on linkers, the order of the positions; unused ones are H or OH. Square brackets hold non-standard residues; d marks the D form. Primed or numbered codes have the meaning given here. Side chains are listed from the residue outwards. Ends that are not written are not given here. * marks the point of attachment. C18 diacid = O=C(O)CCCCCCCCCCCCCCCCC(=O)*; γGlu = O=C(O)[C@H](CCC(=O)[*:2])N[*:1]; Nle = CCCC[C@H](N)C(=O)O; PEG2′ = not defined here

Experiments:
[1] = tested on: human hepatic stellate cells (LX-2); assay: In vitro inhibition of hepatic fibrosis: expression of activation marker α-SMA in LX-2 cells (Western Blot, β-actin internal reference); format: cell-based; details: 10.0 μM, 48 hours, negative control (PBS) = 100%
In short: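 LX-2 cells grown in DMEM high glucose + 10% FBS to ~70% confluence, then exposed to polypeptides (in PBS) at different doses for 48 h; PBS-only negative control. α-SMA quantified by Western blot densitometry normalised to β-actin, expressed relative to control set at 100%.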

[2] = tested on: BDL-induced cholestasis hepatic fibrosis in rats; assay: Bile duct ligation (BDL)-induced hepatic fibrosis in rats (biliary cirrhosis rat model); format: in vivo, SD rats; details: 50 μg/kg subcutaneous every two days, 14 days
Procedure: 1. Experimental Drugs: polypeptide compounds 3, 6, 7, 10, 17, 20, 37, 38, 39, 40, 44, 46, Obeticholic Acid (Abbr. OCA, CAS:459789-99-2, purchased from Zhejiang Warrant Pharmaceutical Co., Ltd.) and Liraglutide. Saving condition was −20° C.
128 male SD rats with body weight of 200-230 g were randomly divided into sixteen groups, which were respectively:
SD rats with body weight of 200-230 g at SPF level were provided by Lanzhou University Laboratory Animal Center. After rats were quarantined in the room (SPF environment) for one week, model rat and rat in sham-operated group were subject to intraperitoneal injection and anesthesia with 0.6% pentobarbital sodium solution, and operation was performed on a super clean bench after anesthesia. Bilateral ligation was conducted on model rat after the common bile duct was separated, and ligation was not conducted on rat in sham-operated group, but only the common bile duct was separated. Administration was started from the next day of the operation.
Administration was started from the first day of the operation, and subcutaneous injection of compounds 3, 6, 7, 10, 17, 20, 37, 38, 39, 40, 44, 46 and Liraglutide with 50 μg/kg was performed every two days; intraperitoneal injection for the Obeticholic Acid administration group with 7.5 mg/kg was performed every day; as for the normal saline group, injection was performed every day. During the administration, changes in vital signs of rats were observed every day.
After the end of two weeks of administration cycle (14 days), the rats were killed to collect materials for subsequent biological determination experiments. The livers were taken out for HE dye, Sirius Red dye and IHC dye. Image-pro plus and Graph pad software were used for statistics.

| Substance | Relative expression of α-SMA (α-SMA/β-actin, %) [1] | ALT in the serum (FIG. 6) [2] | BDL-induced hepatic fibrosis and inflammation (HE, Sirius Red, IHC sections) [2] | collagenous fiber deposition in liver (Sirius Red dyed sections, FIGS. 2, 4) [2] | content of hydroxyproline of the liver (FIG. 7) [2] | α-SMA in liver (IHC dyed sections, FIGS. 3, 5) [2] |
| --- | --- | --- | --- | --- | --- | --- |
| His-(D-Ser)-Gln-Gly-Thr-Phe-Thr-Ser-Asp-Tyr-Ser-Lys-Tyr-Leu-Asp-Lys(PEG2-PEG2-γGlu-CO(CH2)16CO2H)-Arg-Arg-Ala-Gln-Asp-Phe-Val-Gln-Trp-Leu-Nle-Asn-Thr-Gly-Gly-Pro-Ser-Ser-Gly-Ala-Pro-Pro-Pro-Ser-NH2 (H[dS]QGTFTSDYSKYLDK([PEG2′-PEG2′-γGlu-C18 diacid])RRAQDFVQWL[Nle]NTGGPSSGAPPPS-NH2) [Compound 38] | 40.55% | significantly inhibit | significantly reduce | significantly inhibit | significantly inhibit | significantly inhibit |
| His-(D-Ser)-Gln-Gly-Thr-Phe-Thr-Ser-Asp-Tyr-Ser-Lys-Tyr-Leu-Asp-Ser-Lys(PEG2-PEG2-γGlu-CO(CH2)16CO2H)-Ala-Ala-His-Asp-Phe-Val-Glu-Trp-Leu-Leu-Arg-Ala-NH2 (H[dS]QGTFTSDYSKYLDSK([PEG2′-PEG2′-γGlu-C18 diacid])AAHDFVEWLLRA-NH2) [Compound 17] | 35.38% | significantly inhibit | significantly reduce | significantly inhibit | significantly inhibit | significantly inhibit |
